Paper PMC7998669, “7-(2-Anilinopyrimidin-4-yl)-1-benzazepin-2-ones Designed by a “Cut and Glue” Strategy Are Dual Aurora A/VEGF-R Kinase Inhibitors” (Molecules, 2021)

Tests used:
Assay in all cases: NCI cancer cell line screen (sulforhodamin B)
Assay type in all cases: cell-based
NCI/ADR-RES = conditions: Homo sapiens, Ovarian, 48 h, read-out: log10 GI50 (converted)
Protocol: (§1) The new dual Aurora A/VEGF-R inhibitors 2e and 2n were selected by the National Cancer Institute for screening in its broad cancer cell line panel. The NCI in vitro assay is performed by incubation of cells with test compounds for 48 h and subsequent cell fixation with trichloroacetic acid. The pink dye sulforhodamin B is added, which binds to the proteins of the fixed cells. After washing and solubilizing the bound stain, the optical density is measured spectrophotometrically to determine the relative proliferation of treated and untreated cells.
(§2) Simultaneous inhibition of the Aurora A kinase and the VEGF-R2/3 receptor kinases may represent an interesting dual activity for the treatment of cancer. The National Cancer Institute selected the compounds 2e and 2n as representatives with particularly high inhibitory activity on the above kinases for testing in the IVCLS (in vitro cell line screening). In this screening, compounds are tested for antiproliferative activity on about 60 in vitro cultivated tumor cell lines. Based on this very broad screening on cell lines from nine tumor entities the general antiproliferative potency of compounds is determined. In addition, the bioinformatic tool COMPARE allowed one to draw conclusions on the molecular target of the compounds from the activity patterns on the different cell lines. Similar molecular mechanisms of action of two compounds are assumed if a Pearson correlation coefficient (PCC) of > 0.6 is calculated by COMPARE [52, 53]. […] The selectivity profile of the two compounds is not very pronounced given the overall very similar proliferation inhibition values across all cell lines. A COMPARE analysis determined a PCC = 0.61 for the patterns of test compounds 2e and 2n, which is consistent with an analogous mechanism of action. However, whether this mechanism is actually based on the inhibition of the inhibited Aurora kinases and VEGF receptor kinases cannot be deduced from these profiles.

OVCAR-8 = conditions: Homo sapiens; OVCAR-8, Ovarian; 48 h; read-out: log10 GI50 (converted)
Protocol: as §1, §2

SR = conditions: Homo sapiens, Leukemia, 48 h, read-out: log10 GI50 (converted)
Protocol: as §1, §2

M14 = conditions: Homo sapiens; M14, Melanoma; 48 h; read-out: log10 GI50 (converted)
Protocol: as §1, §2

SN12C = conditions: Homo sapiens, Renal, 48 h, read-out: log10 GI50 (converted)
Protocol: as §1, §2

MCF7 = conditions: Homo sapiens; MCF7, Breast; 48 h; read-out: log10 GI50 (converted)
Protocol: as §1, §2

MDA-MB-435 = conditions: Homo sapiens; MDA-MB-435, Melanoma; 48 h; read-out: log10 GI50 (converted)
Protocol: as §1, §2

PC-3 = conditions: Homo sapiens; PC-3, Prostate; 48 h; read-out: log10 GI50 (converted)
Protocol: as §1, §2

HT29 = conditions: Homo sapiens, HT-29; HT29, Colon; 48 h; read-out: log10 GI50 (converted)
Protocol: as §1, §2

EKVX = conditions: Homo sapiens, NSCL, 48 h, read-out: log10 GI50 (converted)
Protocol: as §1, §2

CCRF-CEM = conditions: Homo sapiens, Leukemia, 48 h, read-out: log10 GI50 (converted)
Protocol: as §1, §2

SNB-75 = conditions: Homo sapiens; SNB-75, CNS; 48 h; read-out: log10 GI50 (converted)
Protocol: as §1, §2

SW-620 = conditions: Homo sapiens; SW-620, Colon; 48 h; read-out: log10 GI50 (converted)
Protocol: as §1, §2

SK-MEL-5 = conditions: Homo sapiens; SK-MEL-5, Melanoma; 48 h; read-out: log10 GI50 (converted)
Protocol: as §1, §2

HCT-15 = conditions: Homo sapiens; HCT-15, Colon; 48 h; read-out: log10 GI50 (converted)
Protocol: as §1, §2

HOP-62 = conditions: Homo sapiens; HOP-62, NSCL; 48 h; read-out: log10 GI50 (converted)
Protocol: as §1, §2

BT-549 = conditions: Homo sapiens; BT-549, Breast; 48 h; read-out: log10 GI50 (converted)
Protocol: as §1, §2

DU-145 = conditions: Homo sapiens; DU-145, Prostate; 48 h; read-out: log10 GI50 (converted)
Protocol: as §1, §2

SF-539 = conditions: Homo sapiens; SF-539, CNS; 48 h; read-out: log10 GI50 (converted)
Protocol: as §1, §2

T-47D = conditions: Homo sapiens, T47D, Breast, 48 h, read-out: log10 GI50 (converted)
Protocol: as §1, §2

KM12 = conditions: Homo sapiens; KM12, Colon; 48 h; read-out: log10 GI50 (converted)
Protocol: as §1, §2

K-562 = conditions: Homo sapiens, K562; K-562, Leukemia; 48 h; read-out: log10 GI50 (converted)
Protocol: as §1, §2

NCI-H226 = conditions: Homo sapiens; NCI-H226, NSCL; 48 h; read-out: log10 GI50 (converted)
Protocol: as §1, §2

MDA-MB-231/ATCC = conditions: Homo sapiens, Breast, 48 h, read-out: log10 GI50 (converted)
Protocol: as §1, §2

786-0 = conditions: Homo sapiens; 786-0, Renal; 48 h; read-out: log10 GI50 (converted)
Protocol: as §1, §2

A498 = conditions: Homo sapiens; A498, Renal; 48 h; read-out: log10 GI50 (converted)
Protocol: as §1, §2

HCC-2998 = conditions: Homo sapiens; HCC-2998, Colon; 48 h; read-out: log10 GI50 (converted)
Protocol: as §1, §2

| SMILES | GI50 (NCI/ADR-RES) [µM] | GI50 (OVCAR-8) [µM] | GI50 (SR) [µM] | GI50 (M14) [µM] | GI50 (SN12C) [µM] | GI50 (MCF7) [µM] | GI50 (MDA-MB-435) [µM] | GI50 (PC-3) [µM] | GI50 (HT29) [µM] | GI50 (EKVX) [µM] | GI50 (CCRF-CEM) [µM] | GI50 (SNB-75) [µM] | GI50 (SW-620) [µM] | GI50 (SK-MEL-5) [µM] | GI50 (HCT-15) [µM] | GI50 (HOP-62) [µM] | GI50 (BT-549) [µM] | GI50 (DU-145) [µM] | GI50 (SF-539) [µM] | GI50 (T-47D) [µM] | other results |
| --- | --- | --- | --- | --- | --- | --- | --- | --- | --- | --- | --- | --- | --- | --- | --- | --- | --- | --- | --- | --- | --- |
| O=C1CCCc2cc(-c3ccnc(Nc4ccc(O)cc4)n3)ccc2N1 [Compound 2e, 7-[2-(4-Hydroxyanilino)pyrimidin-4-yl]-1,3,4,5-tetrahydro-2H-1-benzazepin-2-one] | > 100 | 4.07 | 1.32 | 4.07 | 6.17 | 4.27 | 3.63 | 4.9 | 5.13 | 34.7 | 2.51 | 3.39 | 4.79 | 3.09 | 3.24 | 11 | 5.13 | 3.39 | 4.17 | 1.55 | GI50 (KM12): 2.57 µM; GI50 (K-562): 3.72 µM; GI50 (NCI-H226): 29.5 µM; GI50 (MDA-MB-231/ATCC): > 100 µM; GI50 (786-0): 4.37 µM; GI50 (A498): 4.79 µM; GI50 (HCC-2998): 8.71 µM |
| COc1ccc(Nc2nccc(-c3ccc4c(c3)CCCC(=O)N4)n2)cc1O [Compound 2n, 7-[2-(3-Hydroxy-4-methoxyanilino)pyrimidin-4-yl]-1,3,4,5-tetrahydro-2H-1-benzazepin-2-one] | 14.1 | 9.77 | 3.16 | 4.37 | 5.75 | 5.13 | 5.25 | 12.6 | 13.2 | 43.7 | 3.89 | 2.19 | 4.47 | 10 | 4.57 | 8.13 | 5.62 | 5.01 | 4.47 | 4.07 | GI50 (KM12): 4.79 µM; GI50 (K-562): 4.27 µM; GI50 (NCI-H226): 9.12 µM; GI50 (MDA-MB-231/ATCC): > 100 µM; GI50 (786-0): 4.57 µM; GI50 (A498): 37.2 µM; GI50 (HCC-2998): 22.9 µM |
